Experimental data: patent publication US6602700B1, “Phenolic acid esterases, coding sequences and methods” (University of Georgia Research Foundation, Inc., priority 1998, dated 2003)

Biological target: T1, FAE (Acetivibrio thermocellus, UniProt P10478)
T1 construct: made in house; host or cells: E. coli BL21(DE3)
Assay: Inhibition of XynZ FAE by ferulic acid and sugars
Assay type: biochemical, Clostridium thermocellum

T1 sequence (P10478 20-286): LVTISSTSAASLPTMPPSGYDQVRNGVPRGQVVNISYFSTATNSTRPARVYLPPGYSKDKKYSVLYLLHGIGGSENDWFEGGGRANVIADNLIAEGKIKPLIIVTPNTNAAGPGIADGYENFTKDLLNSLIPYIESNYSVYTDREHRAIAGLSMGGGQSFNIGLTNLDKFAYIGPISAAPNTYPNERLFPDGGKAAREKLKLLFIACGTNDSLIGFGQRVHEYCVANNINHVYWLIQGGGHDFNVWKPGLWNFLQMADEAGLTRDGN

Row | SMILES | Inhibition of FAE
1 | COc1cc(/C=C/C(=O)O)ccc1O [ferulic acid] | inhibited
2 | O=C[C@H](O)[C@@H](O)[C@H](O)CO [xylose] | not
3 | O=C[C@@H](O)[C@H](O)[C@H](O)CO [arabinose] | not
